This test deals with CEM cells HIV-1 protection, formazan growth assay. Briefly: NCI AIDS Antiviral Assay. The note with it: for IC50: measured here: growth of uninfected CEM cells. Summed up: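 CEM (human) cells, HIV-1 infected vs uninfected, 5-point dosing, formazan growth read-out. Retest threshold 50% protection.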

The structures appear in SMILES notation. The source made the active and inactive calls.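 The calls were made as follows: active = compounds giving half or more protection of infected cells from virus-caused growth loss, again on retest; inactive = the rest.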

As usually defined, the EC50 is the midpoint of the concentration-response curve. Broadly, the IC50 is the concentration at which inhibition is half-maximal. Higher therefore signals weaker potency in that assay. Turning to `Oc1ccc(Oc2cc3c(cc2Oc2ccc(O)cc2)-c2nc-3nc3[nH]c(nc4nc(nc5[nH]c(n2)c2cc(Oc6ccc(O)cc6)c(Oc6ccc(O)cc6)cc52)-c2cc(Oc5ccc(O)cc5)c(Oc5ccc(O)cc5)cc2-4)c2cc(Oc4ccc(O)cc4)c(Oc4ccc(O)cc4)cc32)cc1`, the EC50 is greater than 50.1 µM and the IC50 was 22.9 µM.

As to `CCCCCC(O)[C@H]1C(=O)C[C@@H](O[Si](C)(C)C(C)(C)C)[C@@H]1/C=C/CCOCc1ccccc1` (some centres not stated), the result was inactive.

For `COC1=C(C(=O)OC(C)(C)C)C23CCCCC2(C(C(=O)OC(C)(C)C)=C(OC)C3C(=O)OC(C)(C)C)C1C(=O)OC(C)(C)C` (configuration not stated), the outcome was inactive.

Take `Cn1nc2ccc3nccc(NCCNCCCl)c3c2n1`: the EC50 is greater than 1.17 µM and the half-inhibitory concentration (IC50) was greater than 1.17 µM.

Regarding `COc1ccc(C2C3COc4ccccc4C3=NN2c2ccccc2)cc1` (configuration not stated), the EC50 is greater than 200 µM and the IC50 is greater than 200 µM.

Consider `CCCCCCCCCCCCCCCC/C(C(=O)OC)=C(/O)C(=O)OCC`, for which the EC50 is greater than 8.51 µM and the IC50 was greater than 8.51 µM.

Regarding `CO[C@]1(c2ccc([N+](=O)[O-])cc2)Oc2ccccc2C(=O)[C@@]1(Nc1ccc(C=O)cc1)OC`, the EC50 is greater than 200 µM and the half-maximal inhibitory concentration (IC50) was found to be 174 µM.

Consider `CC(C)=NNC(=O)CC(=O)N(C(=O)c1ccccc1Cl)c1ccc(C)cc1`, for which the EC50 was greater than 468 µM and the IC50 was greater than 468 µM.

On to `CN(C)c1ccc(-c2ccc(N(C)C)c3n[se]nc23)c2n[se]nc12`, for which the EC50 is greater than 200 µM and the IC50 is greater than 200 µM.

As to `O=C(/C=C/c1ccc(Cl)cc1)c1ccncc1`, the EC50 is greater than 40.7 µM and the IC50 came out at 38 µM.

Regarding `NC(CNC(=O)CBr)C(=O)O` (configuration not stated), the EC50 is greater than 813 µM and the IC50 was determined as 155 µM.

Regarding `COc1ccc2c(c1)c1c3n2CCNN=C3CCC1`, the EC50 is greater than 74.1 µM and the IC50 is greater than 74.1 µM.

With `CCOC(=O)c1sc2nc(CN3CCOCC3)[nH]c(=O)c2c1C`, the EC50 was greater than 77.6 µM and the IC50 was greater than 77.6 µM.

Turning to `CC(=O)c1ccc(NC(=O)/C(CC(=O)/C=C/c2ccccc2)=N/NC(N)=S)cc1`, the EC50 is greater than 63.1 µM and the IC50 was greater than 63.1 µM.

On to `Cc1cccc(NC(=O)Nc2ccccc2Cl)n1`, for which the EC50 is greater than 200 µM and the IC50 was greater than 200 µM.

For the compound `CC(=O)c1ccc(N=NN2CCCC2)cc1`, the EC50 is greater than 200 µM and the IC50 turned out to be 89.1 µM.

Consider `CCOC(=O)c1c(NCc2ccccc2)n(-c2ccccc2)c(=S)n(-c2ccccc2)c1=O`, for which the EC50 is greater than 40.7 µM and the IC50 was 30.2 µM.

Take `S=c1c2ccccc2c(=S)n2n1CC=CC2`: the result was inactive.

Consider `Cc1c(CCOC=O)c(=O)[nH]c2nncn12`, for which the EC50 is 14.1 µM and the IC50 is greater than 200 µM.

Regarding `Cc1nc2c(=O)n(C)ncc2[nH]1`, the EC50 is greater than 200 µM and the IC50 is greater than 200 µM.

For the compound `S=C1NC2=C(COc3ccccc32)C(c2ccc(Cl)cc2)N1` (configuration not stated), the EC50 was greater than 200 µM and the IC50 was found to be 23.4 µM.

For `COc1oc(C2C/C(=C/C(C)=C/C(C)=C/C(C)=C/c3ccc([N+](=O)[O-])cc3)CO2)c(C)c(=O)c1C` (configuration not stated), the EC50 is greater than 38.9 µM and the IC50 was 10 µM.

As to `COc1ccc2c(-c3ccc(OCCN(C)C)cc3)c(Oc3ccc(Cl)cc3)c(=O)oc2c1`, the EC50 is greater than 200 µM and the IC50 turned out to be 5.89 µM.

In the case of `Cc1ccc(S(=O)(=O)N2CCC(C(=O)O)(c3ccccc3)CC2)cc1`, the EC50 was greater than 182 µM and the IC50 was greater than 182 µM.

In the case of `CCOC(=O)C1(Br)CCN(S(=O)(=O)c2ccc(C)cc2)c2ccccc2C1=O` (configuration not stated), the EC50 was greater than 200 µM and the IC50 was determined as 1.51 µM.

As to `C[C@@H]1N[C@@H](C)Cc2c(-c3ccc(O)c4ccccc34)c(O)cc(O)c21`, the EC50 is greater than 200 µM and the IC50 was determined as 30.9 µM.

As to `CCOC(=O)/C(C#N)=C\c1ccc([N+](=O)[O-])o1`, the EC50 was greater than 1050 µM and the IC50 was greater than 1050 µM.

As to `CCCCN1[C@@H](C)C=C[C@@H](C)S1=O` (some centres not stated), the outcome was inactive.

In the case of `O=[N+]([O-])c1cc(S(=O)(=O)c2ccc(N(CCO)CCO)c([N+](=O)[O-])c2)ccc1N(CCO)CCO`, the EC50 is greater than 200 µM and the IC50 is 35.5 µM.

As to `COc1ccc(/C=C2/CCS(=O)(=O)c3ccc(C)cc3C2=O)cc1OC`, the EC50 was greater than 200 µM and the IC50 was 6.03 µM.

`Cc1cc2c(cc1C)C(=O)C1(C2)Cc2c(ccc(C)c2C)C1=O` (configuration not stated): the EC50 was greater than 100 µM and the IC50 was greater than 100 µM.

For `O=C(Nc1nc(C23CC4CC(CC(C4)C2)C3)cs1)c1cc2ccccc2oc1=O`, the EC50 is greater than 200 µM and the half-inhibitory concentration (IC50) was greater than 200 µM.

For the compound `O=C1OC(c2ccccc2)=N/C1=C/C=C/c1ccco1`, the result was inactive.

Turning to `COC(=O)[C@]1(C)CCC[C@]2(C)[C@H]3CC4OO[C@@]3(CC[C@H]21)[C@H]1O[C@@]41C(C)C`, the result was inactive.

With `CCN(CC)CCCNC(=O)C1COc2cc(-c3cc(=O)c4ccccc4o3)ccc2O1` (configuration not stated), the outcome was inactive.

Turning to `C=CCc1ccc(O)c(-c2cc(C3Oc4c(-c5cc(CC=C)ccc5O)cc(O)cc4[C@@H]3CO)ccc2O)c1` (some centres not stated), the EC50 was greater than 100 µM and the half-maximal inhibitory concentration (IC50) is 91.2 µM.

As for `COc1cc(/C=C/c2ccc(OC)c(OC)c2)cc(OC2OC(CO)C(O)C(O)C2O)c1` (configuration not stated), the outcome was inactive.

As to `CC1(C)OC(=O)C(=Cc2ccc3c(c2)OCO3)C(=O)O1`, the EC50 was greater than 129 µM and the concentration for half-maximal inhibition (IC50) was determined as 110 µM.

`COc1ccc(C2=C/C(=C/c3ccc(N(CCC#N)CCC#N)cc3)C(=O)O2)cc1`: the EC50 is greater than 13.2 µM and the IC50 was greater than 13.2 µM.

Consider `O=c1[nH]nc(-c2ccccc2)n1/N=C/c1ccccc1O`, for which the EC50 is greater than 200 µM and the half-inhibitory concentration (IC50) amounted to 115 µM.

As for `Cc1ccc(-n2c3nc(=O)n(C)c(=O)c-3cc3c(OCc4ccccc4)cccc32)cc1`, the EC50 is greater than 19.5 µM and the IC50 is greater than 19.5 µM.

As to `CC1C=C2c3ccccc3CC2C2C(=O)OC(=O)C12` (configuration not stated), the EC50 was greater than 200 µM and the IC50 was greater than 200 µM.

As for `S=c1nn[nH]c2ccccc12`, the EC50 was greater than 219 µM and the IC50 was greater than 219 µM.

For the compound `COc1ccc(/C(Br)=C2\OC(=O)c3ccccc32)cc1`, the EC50 is greater than 200 µM and the IC50 is greater than 200 µM.

On to `CC(=O)O[C@@H]1CC[C@]2(C)C3C[C@H](OC(C)=O)[C@]4(C)C(C(C)CCc5nc6ccccc6o5)CCC4C3[C@H](OC(C)=O)C[C@@H]2C1` (some centres not stated), for which the EC50 is greater than 50.1 µM and the IC50 came out at 8.51 µM.

In the case of `OC1C[C@H](c2ccccc2)C2(C(O)c3ccccc3C2O)[C@@H](c2ccccc2)C1` (some centres not stated), the EC50 is greater than 200 µM and the IC50 amounted to 89.1 µM.

As to `Cc1c(/C=N/NC(=O)c2cc(Br)cc(Br)c2O)c(=O)n(-c2ccccc2)n1C`, the EC50 is greater than 200 µM and the half-maximal inhibitory concentration (IC50) was determined as 123 µM.

On to `CCOC(=O)/C(=C\c1cccc(OC)c1)P(=O)(OCC)OCC`, for which the EC50 was greater than 525 µM and the 50% inhibitory concentration (IC50) amounted to 11.5 µM.

For the compound `CC(C)(C)[Si](C)(C)OC[C@H]1O[C@@H](n2ccc(=O)[nH]c2=O)C[C@]12CCN(O)CO2`, the EC50 was greater than 200 µM and the IC50 was found to be 105 µM.

Consider `CC(C)CNC(=O)Cn1c(-c2ccccc2)cc2ccccc21`, for which the EC50 was greater than 200 µM and the concentration for half-maximal inhibition (IC50) was found to be 195 µM.

Source of the values: PubChem BioAssay AID179 (DTP/NCI, 2004).
